Test results reported in publication PMC3049581, “Development and evaluation of human AP endonuclease inhibitors in melanoma and glioma cell lines” (British Journal of Cancer, 2011).
Entries after “also recorded” stand apart in the source; their conditions may differ. Like-named read-outs stand apart in the source and are kept apart here.

Key:
[1] = molecular target: T1, AP endonuclease activity of HeLa whole-cell extracts (WCE) (Homo sapiens, UniProt P27695); assay: Whole-cell extract AP-site cleavage assay; type: biochemical
T1 construct: incubated at 100 μM concentrations with 30 ng of HeLa WCE at room temperature; endogenous in cells; host or cells: HeLa whole-cell extract
T1 sequence (P27695 whole entry): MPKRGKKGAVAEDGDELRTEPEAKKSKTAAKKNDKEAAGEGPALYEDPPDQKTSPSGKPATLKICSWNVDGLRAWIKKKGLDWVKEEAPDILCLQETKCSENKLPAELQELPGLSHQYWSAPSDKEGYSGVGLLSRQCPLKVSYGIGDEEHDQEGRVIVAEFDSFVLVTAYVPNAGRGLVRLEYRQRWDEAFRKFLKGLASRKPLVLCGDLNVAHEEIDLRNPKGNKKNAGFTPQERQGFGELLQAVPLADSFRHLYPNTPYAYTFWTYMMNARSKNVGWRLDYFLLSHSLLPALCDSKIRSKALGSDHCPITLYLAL
Procedure: The supernatant WCE was retained, the protein concentration determined using the Bio-Rad Bradford reagent, and aliquots were stored at −80°C. AP endonuclease activity assays using 18-mer radiolabelled oligonucleotide substrates (see above) were performed. In brief, all potential APE1 inhibitors were incubated at 100 μM concentrations with 30 ng of HeLa WCE at room temperature for 15 min in incision buffer consisting of 50 mM Tris-HCl, pH 8, 1 mM MgCl2, 50 mM NaCl and 2 mM DTT. After incubation, 0.5 pmol ^32P-radiolabeled THF-containing 18-mer double-stranded DNA substrate was added. […] The radiolabeled substrate and product were separated on a standard polyacrylamide-denaturing gel and quantified by phosphorimager analysis.

[2] = system: melanoma and glioma cell lines; assay: MTS assay, potentiation of cytotoxic agents (other inhibitors, data not shown); type: cell-based; details: relatively non-toxic inhibitor concentration
Procedure: (§1) MeWo, SKMel and MM418 melanoma cancer cell line were grown in RPMI culture medium (supplemented with penicillin 0.06 g l^−1, streptomycin 0.1 g l^−1 pH 7.0, 10% foetal bovine serum (FBS, PAA Cell Culture Company, Yeovil, Somerset, UK). U89 MG and SNB-19 glioma cell lines were grown in DMEM (supplemented with penicillin 0.06 g l^−1, streptomycin 0.1 g l^−1 pH 7.0, 10% foetal bovine serum (FBS, PAA Cell Culture Company). HUVEC endothelial cells were grown in a special media (199 Media+HAMS F12), and supplemented with 20% heat-inactivated foetal calf serum, 1% Hepes, 1% Glutamine, 12.5 μg Human EGF, 625 ng of Human bFGF, 3750 units of Heparin, penicillin 0.06 g l^−1, and streptomycin 0.1 g l^−1) Only cultures with a plating efficiency of over 70% were used for analyses.
(§2) To evaluate intrinsic cytotoxicity and to evaluate the potentiation of toxicity of cytotoxic agents by APE1 inhibitors, MTS assays were performed as per the manufacturer's recommendation (Promega, Southampton, UK). Briefly, 2000 cells per well (in 200 μl of medium) were seeded into a 96-well plate. For HUVEC cells, 5 μl of 2% type 2 gelatine (Sigma) was added to the wells and the plates were preincubated for 20 min at 37°C before seeding of cells. For intrinsic cytotoxicity assessments, cells were incubated with varying concentrations of APE1 inhibitors and the MTS assay was performed on day 5. […] Non-radioactive cell proliferation assay was conducted as described previously.

[3] = system: melanoma and glioma cell lines; assay: MTS assay, intrinsic cytotoxicity; type: cell-based; details: 120 h, MTS assay on day 5, read-out: GI50 (cell growth inhibition)
Procedure: as §1, §2

Human APE1 = molecular target: T2, Human APE1 (Homo sapiens, UniProt P27695); assay: Fluorescence-based AP site cleavage assay; type: biochemical; details: APE1 50 nM, wild type
T2 construct: purchased New England Biolabs
T2 sequence (P27695 whole entry): as above
Procedure: (§3) A fluorescence-based AP site cleavage assay was performed as described previously with slight modifications ([Madhusudan et al, 2005]). Briefly, APE1 (50 nM) (New England Biolabs) was incubated in a buffer system consisting of 50 mM Tris-HCl, pH 8.0, 1 mM MgCl2, 50 mM NaCl, 2 mM DTT at 37°C for 10 min. 5′-F-GCCCCCXGGGGACGTACGATATCCCGCTCC-3′ and its complementary Q-labelled oligonucleotide (see above) were annealed in a buffer containing 100 μM Tris-HCl, 50 mM NaCl and 1 μM EDTA. AP-site cleavage was initiated by addition of the annealed substrate (25 nM) to the reaction mix. Fluorescence readings were taken at 5 min intervals during 30 min incubation at 37°C using an Envision Multilabel reader from Perkins Elmer (Cambridge, UK) with a 495 nm excitation and a 512 nm emission filter. If the DNA is cleaved at the abasic site at position 7 from the 5′-end by APE1, the 6-mer fluorescein-containing product will dissociate from its complement by thermal melting. As a result, the quenching effect of the 3′ dabcyl (which absorbs fluorescein fluorescence when in close proximity) is lost, and APE1 activity is measured indirectly as an increase in fluorescence signal (Figure 2A). Similar assays were developed for monitoring the AP endonuclease activity of endonuclease IV using a buffering system containing 10 mM HEPES-KOH, pH 7.4, 100 mM KCl and 60 ng of endonuclease IV (Trevigen, Abingdon, UK). The final DMSO concentration was maintained at 1.2% in all assays.
(§4) APE1 was incubated with the candidate inhibitors at 100 μM (final DMSO concentration, 1.2%) before initiating the AP site cleavage assay described in the previous section. […] In addition, screening of potential inhibitors for their specificity (at 100 μM concentration) was performed using endonuclease IV cleavage assays.
(§5) To estimate IC50 for APE1 inhibition, the ability of the compounds to inhibit APE1 at a range of concentrations (10 nM–100 μM) were evaluated in black 384-well plates. The reactions were set up as before and fluorescence intensity was measured every 5 min for 30 min following reaction initiation. Using the initial rate values from the assay, percent activity was calculated for each sample relative to a negative DMSO only control. The data was fitted to a sigmoidal dose-response model using Graphpad Prism 3.0 (GraphPad Software, La Jolla, CA, USA) and IC50 values were determined using the formula: % Activity=100/(1+10^(log[I]−log IC 50)).

E. coli endonuclease IV = molecular target: T3, E. coli endonuclease IV (Escherichia coli, UniProt P0A6C1); assay: Fluorescence-based endonuclease IV cleavage assay (counter-screen); type: biochemical; details: tested at 100 μM
T3 construct: purchased Trevigen
Procedure: as §3, §4

[4] = molecular target: T4, D148E polymorphic variant of APE1 (Homo sapiens, UniProt P27695, D148E); assay: Fluorescence-based AP site cleavage assay, D148E polymorph; type: biochemical
T4 construct: made in house
T4 sequence (P27695 whole entry D148E): as the sequence (P27695 whole entry) above, with D148E counted along it
Procedure: as §3
as §5, with “The data was fitted to a sigmoidal dose-response model using Graphpad Prism 3.0 (GraphPad Software, La Jolla, CA, USA) and IC50 values were determined using the formula: % Activity=100/(1+10^(log[I]−log IC 50)).” left out

U89MG cells = assay: Aldehyde reactive probe assay, genomic AP sites; type: cell-based
Procedure: AP sites were quantified as described previously ([Madhusudan et al, 2005]). Genomic DNA was extracted from a pellet of 1 × 10^6 cells using the guanidine/detergent lysis method. Briefly, 0.5 ml of DNAzol (Helena Biosciences, Gateshead, UK) was added to the pellet and the cell lysate was gently passed several times through a pipette. The resultant viscous solution was centrifuged at 10 000 g for 10 min at 25°C. DNA was precipitated from the supernatant using 0.25 ml of 100% ethanol by gently inverting the tube 5–8 times at room temperature for 1–3 min. The DNA was washed twice in 0.4 ml of 75% ethanol. The DNA was then solubilized in TE buffer (pH 8.0), and the final concentration was adjusted to 100 μg ml^−1 (using a Gene Quant pro spectrophotometer). AP-site determinations were performed on the genomic DNA using an aldehyde reactive probe assay kit using the protocol provided by the manufacturer (BioVision Research Products, Mountainview, CA, USA). Untreated cells were compared with cells exposed to either MMS alone, APE1 inhibitor alone or combination of MMS and APE1 inhibitor. DNA was extracted at 90 min and AP site quantified as described previously. All experiments were performed in triplicate.

[5] = molecular target: T4, D148E polymorphic variant of APE1; assay: Radiolabelled oligonucleotide-based APE1 cleavage assay, D148E vs wild type; type: biochemical; details: data not shown
Procedure: This basic assay was performed as described previously ([Madhusudan et al, 2005]). Briefly, a radiolabelled uracil-containing oligonucleotide (5′-CTCGCAAGUGGGTACCGA-3′) was annealed to a complementary oligonucleotide. […] AP site cleavage reaction consisted of 50 nM APE1 and 0.75 ng reduced AP site double-stranded oligonucleotide incubated at 37°C for 1 h. The sample was resolved on a 15% TBE Criterion Pre Cast Gel (Bio-Rad, Hemel Hempstead, Herts, UK) and the radiolabelled substrate and reaction products were visualised using a phosphorImager (Molecular Dynamics, Buckinghamshire, UK).

glioma cell lines = assay: MTS assay, intrinsic cytotoxicity; type: cell-based; details: 120 h, MTS day 5, read-out: GI50 (cell growth inhibition)
Procedure: as §1, §2

melanoma cell lines = assay: MTS assay, intrinsic cytotoxicity; type: cell-based; details: 120 h, MTS day 5, read-out: GI50 (cell growth inhibition)
Procedure: as §1, §2

U89MG glioma cell line = assay: MTS assay, potentiation of cytotoxic agents; type: cell-based; details: inhibitor 10 μM
Procedure: as §1, §2

[6] = system: SK-Mel30 melanoma cell line; assay: MTS assay, potentiation of cytotoxic agents; type: cell-based; details: inhibitor 10 μM
Procedure: as §1, §2

HUVEC endothelial cells = assay: MTS assay, toxicity in non-cancer cells; type: cell-based; details: compared with SK-Mel30 and U89MG
Procedure: as §1
To evaluate intrinsic cytotoxicity and to evaluate the potentiation of toxicity of cytotoxic agents by APE1 inhibitors, MTS assays were performed as per the manufacturer's recommendation (Promega, Southampton, UK). Briefly, 2000 cells per well (in 200 μl of medium) were seeded into a 96-well plate. For HUVEC cells, 5 μl of 2% type 2 gelatine (Sigma) was added to the wells and the plates were preincubated for 20 min at 37°C before seeding of cells. For intrinsic cytotoxicity assessments, cells were incubated with varying concentrations of APE1 inhibitors and the MTS assay was performed on day 5. […]

[7] = 30 ng HeLa WCE, read-out: WCE Inhibition (whole-cell extracts AP site cleavage inhibition)

Structure (SMILES) | potentiation of cytotoxicity of alkylating agents [2] | GI50 [3] [µM] | IC50 (Human APE1) [µM] | inhibition at 100 µM [1, 7] [%] | Endo IV inhibition (E. coli endonuclease IV) | also measured
O=C(OCC(=O)N1NC(c2ccc3ccccc3c2)=CC1c1ccccc1)c1ccc([N+](=O)[O-])s1 (stereo not drawn) [Compound 3, (3-(2-naphthyl)-5-phenyl-2,5-dihydropyrazol-1-yl) carbonylmethyl 5-nitrothiophene-2-carboxylate] | did not shown any potentiation | 1 | 3 | – | – | inhibition of AP site cleavage in WCE assay ([1]; 100 μM, HeLa WCE): no activity; also recorded: did not inhibit; inhibition of AP site cleavage in WCE assay ([1]; 100 μM, HeLa WCE, listed as compound 3, 100 µM): no effect
O=C(O)c1cc2cc(F)ccc2[nH]1 [Compound 1, 5-fluoro-1H-indole-2-carboxylic acid] | not | > 300 | 10 | < 50 | None | –
O=C(CSc1nc2ccccc2s1)CSc1nc2ccccc2s1 [Compound 6, 1,3-bis(1,3-benzothiazol-2-ylthio)acetone] | Potentiation of cytotoxicity was also demonstrated | 50 | 3 | – | None | WCE Inhibition (whole-cell extracts AP site cleavage inhibition) ([1]; 100 μM, 30 ng HeLa WCE): Strong
O=C(CCCn1c(SCC(=O)Nc2nccs2)nc2ccsc2c1=O)NCc1ccc2c(c1)OCO2 [Compound 5, N-(benzo(1,3)dioxol-5-ylmethyl)-4-(2-oxo-4-(thiazol-2-ylcarbamoylmethylsulfanyl)-9-thia-3,5-diazabicyclo(4.3.0)nona-4,7,10-trien-3-yl)-butanamide] | Potentiation of cytotoxicity was also demonstrated | 14 | 12 | 50 to 75 | None | –
O=C(COc1ccc2ccccc2c1)Nc1ccc(O)c(-c2nc3ccccc3o2)c1 [Compound 2, N-(3-benzooxazol-2-yl-4-hydroxy-phenyl)-2-(2-naphthyloxy)acetamide] | Potentiation of cytotoxicity was also demonstrated | 50 | 25 | 50 to 75 | None | –
N#CC(C(=O)c1cc2ccccc2o1)c1nc2ccccc2s1 (stereo not drawn) [Compound 7, 3-benzofuran-2-yl-2-benzothiazol-2-yl-3-oxo-propanenitrile] | did not show any potentiation | 40 | 2 | 50 to 75 | complete inhibition and yes | Endo IV inhibition (E. coli endonuclease IV; listed as compound 7): blocked endonuclease IV activity
Cc1ccc(-c2nc(S(=O)(=O)c3ccccc3)c(SCC(=O)Nc3ccc(F)cc3)o2)cc1 [Compound 4, N-(4-fluorophenyl)-2-(4-phenylsulfonyl-2-(p-tolyl)oxazol-5-yl) sulfanyl-acetamide] | – | – | 11 | > 75 | no inhibition and None | IC50 ([4]; D148E polymorph, 50 nM protein, read-out: IC50 for APE1 inhibition, D148E protein): 5.56 µM; reduction of IC50 for D148E protein compared with wild type ([4]; D148E vs wild type): 50.5%; preferential inhibitory activity towards D148E compared with wild type ([4]; fluorescence or radiolabelled assays): D148E was more sensitive to inhibition; inhibition of AP site cleavage in WCE assay ([1]; 100 μM, HeLa WCE): > 90%; inhibition at 100 µM ([1]; HeLa WCE, read-out: inhibition of AP site cleavage in WCE assay): ~93%; AP site content in genomic DNA, combination with MMS (U89MG cells; 10 μM inhibitor + MMS 600 μM, 90 min): increased AP site content; AP site accumulation in genomic DNA, inhibitor alone (U89MG cells; 10 μM, DNA extracted at 90 min, vs untreated cells): accumulated AP sites; preferential inhibitory activity towards D148E protein, radiolabelled assay [5]: confirmed; GI50 (glioma cell lines): 17 µM; GI50 (melanoma cell lines): 20 µM; potentiation of cytotoxicity of MMS (U89MG glioma cell line): Potentiation; also recorded: significantly potentiated; potentiation of cytotoxicity of doxorubicin (U89MG glioma cell line): did not potentiate; potentiation of cytotoxicity of temozolomide (U89MG glioma cell line): Potentiation; also recorded: significantly potentiated; potentiation of cytotoxicity of MMS [6]: Potentiation; potentiation of cytotoxicity of doxorubicin [6]: did not potentiate; potentiation of cytotoxicity of temozolomide [6]: Potentiation; toxicity to HUVEC cells (HUVEC endothelial cells): relatively nontoxic
